Test results reported in patent publication US6943151B2, “Method of inhibiting bone resorption and/or promoting bone formation using GLP-2 and related compounds” (Sanos Bioscience A/S, priority 2000, dated 2005).

Experiments:
S-CTX (bone resorption) = test: Serum C-telopeptide fragments of collagen type I degradation (S-CTX) by serum CrossLaps ELISA, marker of bone resorption, after administration to human subjects; assay type: in vivo
Experimental: In these Examples Haematology and serum chemistry including glucose were measured using an auto analyser (Vitros). Serum FSH was measured by IRMA (Coat-A-Count®, DPC, Los Angeles, Calif.). Serum C-telopeptide fragments of collagen type I degradation (S-CTX) were measured by ELISA, serum CrossLaps™ assay (Osteometer BioTech A/S—Denmark). Serum osteocalcin was determined by ELISA, an assay which determines the N-terminal mid segment of the molecule. Serum insulin and c-peptide were both assessed by RIA (Coat-A-Count® for insulin and Double Antibody C-peptide for c-peptide both DPC, Los Angeles, Calif.).
12 healthy women and men between 30-45, respectively 30-60, were included in a randomised, controlled cross over study comparing the effects of oral fructose on GLP-1, on GIP and on bone turnover. The individuals had not suffered diseases suspected to affect bone turnover such as cancer, rheumatoid arthritis or diseases compromising absorption from the gut or excretion/re-absorption from the kidney nor had they a history of serious diseases, which might influence the conduct of the study. A general laboratory screening including haematology and serum chemistry gave no indication of specific organ dysfunction. […]

[1] = Level of GLP-2 in blood after subcutaneous GLP-2 injection; assay type: in vivo; details: subcutaneous bolus injection of 400 μg synthetic human GLP-2; healthy women and men
Excerpt: 6 healthy women and 3 healthy men between 24-53 were included in a study comparing the effect of a GLP-2 injection on GLP-2intact and on bone turnover.
The description of the methodology of measurement of GLP-2intact and total GLP-2 and the description of the test persons was as described in detail in Hartmann, B. et al., J Clin Endocrinol Metab 2000; 85 (8):2884-2888.
Blood samples were drawn at regular intervals before, during, and after the injection.
The test persons received a subcutaneous bolus injection of 400 μg synthetic human GLP-2.

GLP-1 = test: Level of GLP-1 in blood after oral nutrient intake; assay type: in vivo, human; details: after 2 hours; oral 75 g fructose; healthy women and men
Excerpt: (§1) 12 healthy women and men between 30-45, respectively 30-60, were included in a randomised, controlled cross over study comparing the effects of oral fructose on GLP-1, on GIP and on bone turnover. The individuals had not suffered diseases suspected to affect bone turnover such as cancer, rheumatoid arthritis or diseases compromising absorption from the gut or excretion/re-absorption from the kidney nor had they a history of serious diseases, which might influence the conduct of the study. A general laboratory screening including haematology and serum chemistry gave no indication of specific organ dysfunction. The individuals were not under influence of bone active medication, thus more than 3 months had passed since previous treatment with calcium, vitamin D, oestrogen or progestin in any administration form and the individuals had never been treated with bisphosphonates or fluoride.
After fasting from 10 p.m. the evening prior to an experiment, blood samples were collected between 7:30 a.m. and 8:30 a.m. Immediately thereafter oral fructose were initiated. […]
The normal mixed meal consisted of rye bread, toast, butter, cheese, jam, yoghurt, banana, and orange juice (total weight 755 g), with an energy content of 3.92 MJ and a protein:carbohydrate:fat energy ratio of 10%:52%:37% evaluated from food tables.

GIP = test: Level of GIP in blood after oral nutrient intake; assay type: in vivo, human; details: oral 75 g fructose; healthy women and men; result in words
Excerpt: as §1
After fasting from 10 p.m. the evening prior to an experiment, blood samples were collected between 7:30 a.m. and 8:30 a.m. Immediately thereafter oral fructose were initiated. At precisely 1, 2, 3, 6 and 9 hours after the first blood sample, blood samples were collected. A washout period of 2 weeks was instituted between each experiment.
Oral fructose consisted of 75 g fructose dissolved in 300 ml water with juice of a half lemon added. […]

Compound: GLP-2: synthetic human GLP-2, 33 amino acid peptide fragment of proglucagon (126-158)
- reduction in S-CTX (S-CTX (bone resorption); after 3 hours, subcutaneous bolus injection of 400 μg, 6 healthy women and 3 healthy men): 33%
- time to peak level of GLP-2 after the injection [1]: 1 h

Compound: O=C(CO)[C@@H](O)[C@H](O)[C@H](O)CO [fructose]
- reduction in S-CTX (S-CTX (bone resorption); after 2 hours, oral intake after overnight fast, 12 healthy women and men): 36%
- occurrence (level) of GLP-1 compared to the baseline of 100% at To (GLP-1): 220%
- level of GIP (GIP): almost maintained at the baseline
